Target: α3β4 nicotinic acetylcholine receptor (mouse) (Mus musculus, UniProt Q8R493+Q8R4G9)
Experiment: two-electrode voltage clamp of Xenopus oocytes, block of ACh
Assay type: cell-based

Chain of α3β4 nicotinic acetylcholine receptor (mouse) (Q8R4G9 26-499): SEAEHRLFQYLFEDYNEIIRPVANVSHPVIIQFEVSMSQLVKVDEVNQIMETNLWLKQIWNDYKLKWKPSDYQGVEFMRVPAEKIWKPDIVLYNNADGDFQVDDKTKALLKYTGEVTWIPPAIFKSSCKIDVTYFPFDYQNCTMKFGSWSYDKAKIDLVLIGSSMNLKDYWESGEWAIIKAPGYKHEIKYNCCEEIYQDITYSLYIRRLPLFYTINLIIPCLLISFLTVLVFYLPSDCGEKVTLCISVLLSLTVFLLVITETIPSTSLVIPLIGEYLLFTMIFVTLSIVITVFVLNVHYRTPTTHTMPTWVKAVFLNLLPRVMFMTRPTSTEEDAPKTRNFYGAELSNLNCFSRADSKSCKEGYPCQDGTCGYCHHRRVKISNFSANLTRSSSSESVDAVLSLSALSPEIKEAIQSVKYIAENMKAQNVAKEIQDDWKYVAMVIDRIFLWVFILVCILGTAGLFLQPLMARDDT
Chain of α3β4 nicotinic acetylcholine receptor (mouse) (Q8R493 21-495): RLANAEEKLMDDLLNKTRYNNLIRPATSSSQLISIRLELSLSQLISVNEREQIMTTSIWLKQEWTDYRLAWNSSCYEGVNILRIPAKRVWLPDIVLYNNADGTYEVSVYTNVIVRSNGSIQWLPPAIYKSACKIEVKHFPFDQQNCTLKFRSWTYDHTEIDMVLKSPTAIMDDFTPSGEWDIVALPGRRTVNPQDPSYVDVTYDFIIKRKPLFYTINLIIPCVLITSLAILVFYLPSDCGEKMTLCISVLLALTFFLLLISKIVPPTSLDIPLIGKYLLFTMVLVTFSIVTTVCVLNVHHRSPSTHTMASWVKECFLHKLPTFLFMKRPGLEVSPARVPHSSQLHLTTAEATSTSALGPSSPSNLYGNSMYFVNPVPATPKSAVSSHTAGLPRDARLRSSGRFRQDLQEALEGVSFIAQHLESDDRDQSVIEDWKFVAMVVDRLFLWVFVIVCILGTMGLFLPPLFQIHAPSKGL

**Q.** Which IC50 does the source give for molleamine C [compound 3] here?
**A.** Its IC50 is 1430 nM.

— article PMC8487611 (ACS chemical neuroscience, 2021)
